# Data as given in US20240067632A1, “WEE1 Degrading Compounds and Uses Thereof” (Bristol-Myers Squibb Company, priority 2022, published 2024).
# Read-outs that look alike come from different tables or passages of the source.
# Key:
# [1] = target: T1, WEE1 (Homo sapiens, UniProt P30291+Q96SW2); assay: WEE1-ePL degradation assay (LentiX-WEE1-ePL-GSPT1-ND cells, InCELL Hunter luminescence, 4 h); type: cell-based; settings: 293T-LentiX WEE1-ePL cells; for DC50: read-out: 293T-LentiX WEE1-ePL Degradation 4 hr (EC50)
# T1 construct: C-terminal ePL-tagged (DiscoverX, Fremont, CA) full-length WEE1 expression construct; expressed in transfected cells; host or cells: LentiX-HEK293T (Invitrogen), lentiviral transduction; co-expressing GSPT1-GN (G576N, lacking the first 158 amino acids)
# Procedure, shortened: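 HEK293T cells stably expressing C-terminal ePL-tagged full-length WEE1, 2500 cells/well, treated 4 h at 37° C with a 10-point 3-fold series from 1 or 10 uM. Remaining WEE1-ePL read by InCELL Hunter luminescence after 30 min. EC50 came from a four-parameter logistic fit, with Ymax set from DMSO control.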
# [2] = tested on: MKN45 cells; assay: MKN45 cell proliferation assay (Cell-Titer-Glo, 120 h); type: cell-based; settings: for EC50: Homo sapiens, MKN-45, 120 h, Cell-Titer-Glo, read-out: MKN45 Cell Prolif. 120 hr (EC50); for MKN45 Cell Prolif. 120 hr (Ymin-Obs): minimal percent of DMSO control observed in the concentrations tested
# Procedure, shortened: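 Cells seeded at 400/well onto pre-printed 10-point half-log dilutions (top 1 or 10 uM, 0.1% DMSO final), in triplicate, and grown 120 h at 37 C. Viability by Cell-Titer-Glo luminescence, blank-subtracted and normalised to DMSO; EC50 from four-parameter logistic fit, with observed minimal % of control recorded as Ymin-obs.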
# [3] = lower limit of the fit (0 = luciferase inhibitor, Ymax = DMSO control)
# [4] = lower limit of the fit (Ymin=0 luciferase inhibitor, Ymax DMSO control)
"293T-LentiX WEE1-ePL Degradation 4 hr (Ymin) [1, 3]",DC50 [1] [nM],EC50 ([2]; growth inhibition) [nM],"293T-LentiX WEE1-ePL Degradation 4 hr (Ymin) [1, 4]",EC50 [2] [nM],Structure (SMILES),MKN45 Cell Prolif. 120 hr (Ymin-Obs) [2]
37.28,112,1710,,,"O=C1CCC(N2Cc3cc(O[C@H]4CCN(Cc5cc6ccccc6[nH]c5=O)C4)ccc3C2=O)C(=O)N1 (stereo partly drawn) [3-(1-oxo-5-{[(3S)-1-[(2-oxo-1,2-dihydroquinolin-3-yl)methyl]pyrrolidin-3-yl]oxy}-2,3-dihydro-1H-isoindol-2-yl)piperidine-2,6-dione]",30.3825
26,3.41,0.882,,,"CO[C@H]1CC[C@@](C)(Nc2ccc3cc(CN4CC[C@H](Oc5ccc6c(c5)CN(C5CCC(=O)NC5=O)C6=O)C4)ccc3n2)CC1 (stereo partly drawn) [3-(1-oxo-5-{[(3S)-1-[(2-{[(1s,4s)-4-methoxy-1-methylcyclohexyl]amino}quinolin-6-yl)methyl]pyrrolidin-3-yl]oxy}-2,3-dihydro-1H-isoindol-2-yl)piperidine-2,6-dione]",8.44
32,1.33,1.29,,,"O=C1CCC(N2Cc3cc(O[C@H]4CCN(Cc5ccc6nc(C7CCOCC7)ccc6c5F)C4)ccc3C2=O)C(=O)N1 (stereo partly drawn) [3-(5-{[(3S)-1-{[5-fluoro-2-(oxan-4-yl)quinolin-6-yl]methyl}pyrrolidin-3-yl]oxy}-1-oxo-2,3-dihydro-1H-isoindol-2-yl)piperidine-2,6-dione]",10.02
47,11.3,15.5,,,"O=C1CCC(N2Cc3cc(O[C@H]4CCN(Cc5ccc6nc(N7CCCC78CCOCC8)ccc6c5)C4)ccc3C2=O)C(=O)N1 (stereo partly drawn) [3-(5-{[(3S)-1-[(2-{8-oxa-1-azaspiro[4.5]decan-1-yl}quinolin-6-yl)methyl]pyrrolidin-3-yl]oxy}-1-oxo-2,3-dihydro-1H-isoindol-2-yl)piperidine-2,6-dione]",20.2
28.55,2.97,4.39,,,"C[C@H]1CC(c2ccc3cc(CN4CC[C@H](Oc5ccc6c(c5)CN(C5CCC(=O)NC5=O)C6=O)C4)ccc3n2)CCO1 (stereo partly drawn) [3-(5-{[(3S)-1-({2-[(2S)-2-methyloxan-4-yl]quinolin-6-yl}methyl)pyrrolidin-3-yl]oxy}-1-oxo-2,3-dihydro-1H-isoindol-2-yl)piperidine-2,6-dione]",10.88
87.055,,,,,"Cc1nc2ccccc2cc1CN1CC[C@H](Oc2ccc3c(c2)C(=O)N(C2CCC(=O)NC2=O)C3)C1 (stereo partly drawn) [3-(6-{[(3S)-1-[(2-methylquinolin-3-yl)methyl]pyrrolidin-3-yl]oxy}-1-oxo-2,3-dihydro-1H-isoindol-2-yl)piperidine-2,6-dione]",79.9
30.5,32.6,21.4,,,"O=C1CCC(N2Cc3cc(O[C@H]4CCN(Cc5ccc6nc(C7CCOCC7)ncc6c5)C4)ccc3C2=O)C(=O)N1 (stereo partly drawn) [3-(5-{[(3S)-1-{[2-(oxan-4-yl)quinazolin-6-yl]methyl}pyrrolidin-3-yl]oxy}-1-oxo-2,3-dihydro-1H-isoindol-2-yl)piperidine-2,6-dione]",6.11
36.57,57,284,,,"O=C1CCC(N2Cc3cc(O[C@H]4CCN(Cc5ccc6ncncc6c5)C4)ccc3C2=O)C(=O)N1 (stereo partly drawn) [3-(1-oxo-5-{[(3S)-1-[(quinazolin-6-yl)methyl]pyrrolidin-3-yl]oxy}-2,3-dihydro-1H-isoindol-2-yl)piperidine-2,6-dione]",20.44
37,8.5,14.2,,,"O=C1CCC(N2Cc3cc(O[C@H]4CCN(Cc5ccc6nc(N7CCC78COC8)ncc6c5)C4)ccc3C2=O)C(=O)N1 (stereo partly drawn) [3-(5-{[(3S)-1-[(2-{6-oxa-1-azaspiro[3.3]heptan-1-yl}quinazolin-6-yl)methyl]pyrrolidin-3-yl]oxy}-1-oxo-2,3-dihydro-1H-isoindol-2-yl)piperidine-2,6-dione]",14.05
36,3.82,3.17,,,"O=C1CCC(N2Cc3cc(O[C@H]4CCN(Cc5cc6ccc(N7CCOCC7)cc6cn5)C4)ccc3C2=O)C(=O)N1 (stereo partly drawn) [3-(5-{[(3S)-1-{[7-(morpholin-4-yl)isoquinolin-3-yl]methyl}pyrrolidin-3-yl]oxy}-1-oxo-2,3-dihydro-1H-isoindol-2-yl)piperidine-2,6-dione]",6.72
34,14.1,26.8,,,"O=C1CCC(N2Cc3cc(O[C@H]4CCN(Cc5ccc6nc(N7CC(O)C7)ccc6c5)C4)ccc3C2=O)C(=O)N1 (stereo partly drawn) [3-(5-{[(3S)-1-{[2-(3-hydroxyazetidin-1-yl)quinolin-6-yl]methyl}pyrrolidin-3-yl]oxy}-1-oxo-2,3-dihydro-1H-isoindol-2-yl)piperidine-2,6-dione]",13.6
,3,,30.27,7.69,"O=C1CCC(N2Cc3cc(O[C@H]4CCN(Cc5ccc6nc(C7CCOCC7)ccc6c5)C4)c(F)cc3C2=O)C(=O)N1 (stereo partly drawn) [3-(6-fluoro-5-{[(3S)-1-{[2-(oxan-4-yl)quinolin-6-yl]methyl}pyrrolidin-3-yl]oxy}-1-oxo-2,3-dihydro-1H-isoindol-2-yl)piperidine-2,6-dione]",15.44
27.19,1.71,2.72,,,"N#Cc1ccc2cc(CN3CC[C@H](Oc4ccc5c(c4)CN([C@H]4CCC(=O)NC4=O)C5=O)C3)cc(F)c2n1 [6-{[(3S)-3-({2-[(3S)-2,6-dioxopiperidin-3-yl]-1-oxo-2,3-dihydro-1H-isoindol-5-yl}oxy)pyrrolidin-1-yl]methyl}-8-fluoroquinoline-2-carbonitrile]",8.579
,1.15,,24.64,0.424,"C[C@@H]1CN(Cc2ccc3nc([C@@H]4CCOC(C)(C)C4)ccc3c2)C[C@H]1Oc1ccc2c(c1)CN([C@H]1CCC(=O)NC1=O)C2=O [(3S)-3-(5-{[(3S,4R)-1-({2-[(4R)-2,2-dimethyloxan-4-yl]quinolin-6-yl}methyl)-4-methylpyrrolidin-3-yl]oxy}-1-oxo-2,3-dihydro-1H-isoindol-2-yl)piperidine-2,6-dione]",8.113
37,2.46,3.67,,,"CO[C@@H]1CCN(c2ccc3cc(CN4CC[C@H](Oc5ccc6c(c5)CN(C5CCC(=O)NC5=O)C6=O)C4)ccc3n2)C1 (stereo partly drawn) [3-(5-{[(3S)-1-({2-[(3R)-3-methoxypyrrolidin-1-yl]quinolin-6-yl}methyl)pyrrolidin-3-yl]oxy}-1-oxo-2,3-dihydro-1H-isoindol-2-yl)piperidine-2,6-dione]",8.99
34,65.1,425,,,"CN1CCc2cc(CN3CC[C@H](Oc4ccc5c(c4)CN(C4CCC(=O)NC4=O)C5=O)C3)cnc2C1 (stereo partly drawn) [3-(5-{[(3S)-1-[(7-methyl-5,6,7,8-tetrahydro-1,7-naphthyridin-3-yl)methyl]pyrrolidin-3-yl]oxy}-1-oxo-2,3-dihydro-1H-isoindol-2-yl)piperidine-2,6-dione]",11.9
69.05,5070,> 10000,,,"Cc1ccc2cc(CN3CC[C@H](Oc4ccc5c(c4)CN(C4(C)CCC(=O)NC4=O)C5=O)C3)ccc2n1 (stereo partly drawn) [3-methyl-3-(5-{[(3S)-1-[(2-methylquinolin-6-yl)methyl]pyrrolidin-3-yl]oxy}-1-oxo-2,3-dihydro-1H-isoindol-2-yl)piperidine-2,6-dione]",83.56
,3.13,,32.63,7.59,"O=C1CC[C@H](N2Cc3cc(O[C@H]4CCN(Cc5cc(F)c6nc(N7CCOCC7)ncc6c5)C4)ccc3C2=O)C(=O)N1 [(3S)-3-(5-{[(3S)-1-{[8-fluoro-2-(morpholin-4-yl)quinazolin-6-yl]methyl}pyrrolidin-3-yl]oxy}-1-oxo-2,3-dihydro-1H-isoindol-2-yl)piperidine-2,6-dione]",10.25
27,3.19,2.96,,,"O=C1CCC(N2Cc3cc(O[C@H]4CCN(Cc5ccc6ncc(N7CCOCC7)cc6c5)C4)ccc3C2=O)C(=O)N1 (stereo partly drawn) [3-(5-{[(3S)-1-{[3-(morpholin-4-yl)quinolin-6-yl]methyl}pyrrolidin-3-yl]oxy}-1-oxo-2,3-dihydro-1H-isoindol-2-yl)piperidine-2,6-dione]",7.83
